Assay results: ChEMBL document CHEMBL3797176, “Identification of selenocompounds with promising properties to reverse cancer multidrug resistance” (Bioorg Med Chem Lett, 2016)

Legend:
[1] = test system: L5178Y; test: Cytotoxicity against mouse L5178Y cells assessed as growth inhibition after 72 hrs by MTT assay; assay type: functional, cell-based
[2] = molecular target: T1, ATP-dependent translocase ABCB1 (Homo sapiens, UniProt P08183); test: Inhibition of human MDR1 transfected in multi-drug resistant mouse L5178Y cells assessed as fluorescence activity ratio at 2 uM incubated for 10 mins by rhodamine 123 accumulation assay; assay type: cell-based
[3] = molecular target: T1, ATP-dependent translocase ABCB1; test: Inhibition of human MDR1 transfected in multi-drug resistant mouse L5178Y cells assessed as fluorescence activity ratio at 20 uM incubated for 10 mins by rhodamine 123 accumulation assay; assay type: cell-based
[4] = molecular target: T1, ATP-dependent translocase ABCB1; test: Inhibition of human MDR1 transfected in multi-drug resistant mouse L5178Y cells assessed as fluorescence activity ratio quotient at 20 uM incubated for 10 mins by rhodamine 123 accumulation assay relative to verapamil; assay type: cell-based; design: scale not given: the % may be the effect or the level left
[5] = test system: L5178Y; test: Induction of apoptosis in multi-drug resistant mouse L5178Y cells transfected with human MDR1 assessed as late apoptosis/necrosis at 2 uM after 1 hr by Annexin V-FITC/propidium iodide staining-based flow cytometry (reference value: 2.28%); assay type: functional
[6] = test system: L5178Y; test: Induction of apoptosis in mouse L5178Y cells assessed as early apoptosis at 2 uM after 1 hr by Annexin V-FITC/propidium iodide staining-based flow cytometry (reference value: 3.96%); assay type: functional
[7] = test system: L5178Y; test: Induction of apoptosis in multi-drug resistant mouse L5178Y cells transfected with human MDR1 assessed as early apoptosis at 2 uM after 1 hr by Annexin V-FITC/propidium iodide staining-based flow cytometry (reference value: 6.46%); assay type: functional
[8] = test system: L5178Y; test: Induction of apoptosis in multi-drug resistant mouse L5178Y cells transfected with human MDR1 assessed as cell death at 2 uM after 1 hr by Annexin V-FITC/propidium iodide staining-based flow cytometry (reference value: 0.09%); assay type: functional
[9] = test system: L5178Y; test: Induction of apoptosis in mouse L5178Y cells assessed as cell death at 2 uM after 1 hr by Annexin V-FITC/propidium iodide staining-based flow cytometry (reference value: 0.191%); assay type: functional
[10] = test system: L5178Y; test: Induction of apoptosis in mouse L5178Y cells assessed as late apoptosis/necrosis at 2 uM after 1 hr by Annexin V-FITC/propidium iodide staining-based flow cytometry (reference value: 0.859%); assay type: functional
[11] = molecular target: T1, ATP-dependent translocase ABCB1; test: Inhibition of human MDR1 transfected in multi-drug resistant mouse L5178Y cells assessed as fluorescence activity ratio quotient at 2 uM incubated for 10 mins by rhodamine 123 accumulation assay relative to verapamil; assay type: cell-based; design: scale not given: the % may be the effect or the level left
[12] = test system: L5178Y; test: Cytotoxicity against multi-drug resistant mouse L5178Y cells assessed as growth inhibition after 72 hrs by MTT assay; assay type: functional, cell-based
[13] = molecular target: T1, ATP-dependent translocase ABCB1; test: Inhibition of human MDR1 transfected in multi-drug resistant mouse L5178Y cells at 20 uM incubated for 10 mins by rhodamine 123 accumulation assay relative to verapamil; assay type: cell-based
[14] = molecular target: T1, ATP-dependent translocase ABCB1; test: Inhibition of human MDR1 transfected in multi-drug resistant mouse L5178Y cells at 2 uM incubated for 10 mins by rhodamine 123 accumulation assay relative to verapamil; assay type: cell-based
[15] = test system: L5178Y; test: Ratio of induction of apoptosis in mouse L5178Y cells to multi-drug resistant mouse L5178Y cells transfected with human MDR1; assay type: functional
[16] = test system: L5178Y; test: Induction of apoptosis in multi-drug resistant mouse L5178Y cells transfected with human MDR1 assessed as early apoptosis at 20 uM after 1 hr by Annexin V-FITC/propidium iodide staining-based flow cytometry (reference value: 6.46%); assay type: functional
[17] = test system: L5178Y; test: Induction of apoptosis in multi-drug resistant mouse L5178Y cells transfected with human MDR1 assessed as cell death at 20 uM after 1 hr by Annexin V-FITC/propidium iodide staining-based flow cytometry (reference value: 0.09%); assay type: functional
[18] = test system: L5178Y; test: Induction of apoptosis in mouse L5178Y cells assessed as early apoptosis at 20 uM after 1 hr by Annexin V-FITC/propidium iodide staining-based flow cytometry (reference value: 3.96%); assay type: functional
[19] = test system: L5178Y; test: Induction of apoptosis in mouse L5178Y cells assessed as late apoptosis/necrosis at 20 uM after 1 hr by Annexin V-FITC/propidium iodide staining-based flow cytometry (reference value: 0.859%); assay type: functional
[20] = test system: L5178Y; test: Induction of apoptosis in mouse L5178Y cells assessed as cell death at 20 uM after 1 hr by Annexin V-FITC/propidium iodide staining-based flow cytometry (reference value: 0.191%); assay type: functional
[21] = test system: L5178Y; test: Induction of apoptosis in multi-drug resistant mouse L5178Y cells transfected with human MDR1 assessed as late apoptosis/necrosis at 20 uM after 1 hr by Annexin V-FITC/propidium iodide staining-based flow cytometry (reference value: 2.28%); assay type: functional

T1 sequence (P08183 whole entry): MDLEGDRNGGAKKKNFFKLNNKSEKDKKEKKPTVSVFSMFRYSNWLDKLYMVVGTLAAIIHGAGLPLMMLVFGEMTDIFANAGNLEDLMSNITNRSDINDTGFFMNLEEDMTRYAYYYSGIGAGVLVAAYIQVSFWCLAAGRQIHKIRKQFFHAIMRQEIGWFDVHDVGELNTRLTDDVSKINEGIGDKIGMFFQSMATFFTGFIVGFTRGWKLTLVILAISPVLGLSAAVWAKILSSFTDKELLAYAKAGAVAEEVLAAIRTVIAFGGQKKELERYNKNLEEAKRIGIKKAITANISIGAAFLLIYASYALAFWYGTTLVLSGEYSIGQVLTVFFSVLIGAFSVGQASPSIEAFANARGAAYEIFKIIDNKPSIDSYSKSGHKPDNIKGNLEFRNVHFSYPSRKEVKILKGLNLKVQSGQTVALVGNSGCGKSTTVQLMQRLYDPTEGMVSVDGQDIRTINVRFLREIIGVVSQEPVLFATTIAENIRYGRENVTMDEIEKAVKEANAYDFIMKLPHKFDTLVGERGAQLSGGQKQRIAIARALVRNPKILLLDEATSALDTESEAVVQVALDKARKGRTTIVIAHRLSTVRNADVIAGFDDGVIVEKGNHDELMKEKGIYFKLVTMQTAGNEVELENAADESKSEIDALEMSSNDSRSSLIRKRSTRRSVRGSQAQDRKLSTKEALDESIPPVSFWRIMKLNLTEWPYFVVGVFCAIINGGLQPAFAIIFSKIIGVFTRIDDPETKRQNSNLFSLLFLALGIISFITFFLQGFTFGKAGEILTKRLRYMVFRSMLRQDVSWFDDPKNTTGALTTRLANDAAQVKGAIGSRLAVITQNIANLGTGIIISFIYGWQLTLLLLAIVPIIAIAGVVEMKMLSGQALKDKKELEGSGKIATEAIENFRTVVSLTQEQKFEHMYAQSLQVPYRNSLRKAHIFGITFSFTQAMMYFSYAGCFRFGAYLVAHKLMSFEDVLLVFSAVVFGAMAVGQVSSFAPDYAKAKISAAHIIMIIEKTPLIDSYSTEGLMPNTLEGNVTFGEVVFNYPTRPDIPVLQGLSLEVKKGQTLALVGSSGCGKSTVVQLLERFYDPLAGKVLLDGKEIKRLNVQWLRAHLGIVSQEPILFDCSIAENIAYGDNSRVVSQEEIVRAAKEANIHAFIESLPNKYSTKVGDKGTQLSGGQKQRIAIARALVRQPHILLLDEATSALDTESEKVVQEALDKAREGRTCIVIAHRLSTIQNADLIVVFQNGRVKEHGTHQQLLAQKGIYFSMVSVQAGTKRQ

Row | SMILES | IC50 [1] | Ratio [2] | Ratio [3] | Activity [4] | Activity [5] | Activity [6] | Activity [7] | Activity [8] | Activity [9] | Activity [10] | Activity [11] | IC50 [12] | fold change (FC) [13] | also measured
1 | NC(=O)C[Se]C(=O)c1ccccc1 | > 100 µM | 1.02 | 1.05 | 3.72% | 2.91% | 2.46% | 3.01% | 0.33% | 0.081% | 2.24% | 3.04% | 36.4 µM |  | 
2 | O=C1[Se]C(=O)c2ccccc21 | 3.97 µM | 43.14 | 97.61 | 356.2% | 45% | 31.5% | 32.2% | 0.47% | 0.767% | 53.9% | 157.4% | 4.65 µM | 1.7 | fold change (FC) [14]: 1.6
3 | COC(=O)C[Se]C(=O)c1ccc(Cl)cc1 | > 100 µM | 6.45 | 8.53 | 23.54% | 1.47% | 5.09% | 2.69% | 0.03% | 0.497% | 2.52% | 30.28% | 87.8 µM |  | 
4 | O=C(C[Se]C(=O)c1ccccc1)Oc1ccccc1 | > 100 µM | 0.65 | 5.68 | 2.37% | 2.26% | 3% | 3.9% | 0.16% | 0.24% | 2.11% | 3.05% | > 100 µM |  | 
5 | CC(=O)C[Se]C(=O)c1ccc(Cl)cc1 | 0.78 µM | 94.2 | 84.64 | 308.91% | 85.8% | 30.8% | 3.86% | 7.66% | 0.874% | 52.7% | 343.79% | 1.03 µM | 1.7 | fold change (FC) [14]: 1.6
6 | CC(C)(C)C(=O)C[Se]C(=O)c1ccc(Cl)cc1 | 0.94 µM | 9.28 | 48.67 | 177.63% | 21.9% | 36.1% | 15.9% | 1.21% | 0.255% | 56.1% | 33.87% | 0.43 µM | 1.7 | Ratio [15]: 2
7 | COc1cc(OC)cc(C(=O)[Se]CC(=O)C(C)(C)C)c1 | 1.31 µM | 12.56 | 46.35 | 169.16% | 30.5% | 15.7% | 16.6% | 0.51% | 0.167% | 66.6% | 45.84% | 0.97 µM | 1.7 | Ratio [15]: 2
8 | C[Se]C(=O)c1ccc(C(=O)[Se]C)cc1 | > 100 µM | 3.97 | 3.09 | 14.49% | 3.25% | 3.61% | 3.01% | 0.37% | 0.11% | 2.01% | 18.64% | > 100 µM |  | 
9 | C[Se]C(=O)c1cccc(C(=O)[Se]C)c1 | > 100 µM | 0.93 | 0.98 | 3.39% | 2.8% | 4.47% | 4.35% | 0.45% | 0.076% | 3.79% | 2.78% | > 100 µM |  | 
10 | C[Se]C(=O)c1cccc(C(=O)[Se]C)n1 | 19.5 µM | 1.13 | 1.49 | 5.44% | 3.28% | 5.97% | 5.38% | 0.24% | 0.202% | 7.18% | 3.98% | 16.9 µM |  | 
11 | C[Se]C(=O)c1ccc(C(=O)[Se]C)s1 | > 100 µM | 0.99 | 1.07 | 3.19% | 2.34% | 6.64% | 5.07% | 0.3% | 0.352% | 6.93% | 3.61% | > 100 µM |  | 
12 | c1ccc2c(c1)Nc1c(ccc3ccccc13)S2 |  |  |  |  |  |  |  |  |  |  |  |  |  | Activity [16]: 47.9%; Activity [17]: 0.12%; Activity [18]: 51.2%; Activity [19]: 5.58%; Activity [20]: 0.279%; Activity [21]: 45.7%
13 | CSc1ccc2c(c1)N(CCC1CCCCN1C)c1ccccc1S2 (stereo not drawn) [THIORIDAZINE] | 12.7 µM |  |  |  |  |  |  |  |  |  |  | 7.43 µM |  | 
